# Test results as given in patent publication US20170360897A1, “POLYPEPTIDE AND POLYPEPTIDE COMPLEX FOR SUPPRESSING TUMOR METASTASIS AND TREATING LEUKEMIA AS WELL AS PREPARATION METHOD THEREFOR AND APPLICATION THEREOF” (National Center for Nanoscience and Technology, China, priority 2014, published 2017).
# Like-named read-outs stand apart in the source and are kept apart here. No end group written: not given here. *: point of attachment. Biotin = O=C1N[C@H]2[C@H](CS[C@H]2CCCCC(=O)*)N1
# Experiments:
# [1] = system: NOD/SCID mice transplanted with HL-60 cells; conditions: 30 mg/kg subcutaneous, twice a week from day 20 after transplantation
# Experimental: The 5-week-old female NOD/SCID mice (purchased from the Animal Experimental Center of the Institute of Basic Medical Science, Chinese Academy of Medical Sciences) cultured in a special sterile environment were used. Prior to the experiment, animals should be acclimated to the laboratory environment for 1 week. 1×10^6 HL-60 cells were suspended in 100 μL ethylene diamine tetracetic acid sodium (EDTA)/PBS and injected intravenously into NOD/SCID mice subjected to sub-lethal irradiation (250 cGy). […] From day 20 after transplantation, the mice were injected with E5 (30 mg/kg, n=9), cyclophosphamide (CTX, 36 mg/kg, n=9), or sterile water (n=8) respectively twice a week to observe the state and weight changes of the mice, wherein E5 and sterile water were injected into mice by subcutaneous injection and cyclophosphamide was injected into mice by intraperitoneal injection.
# [2] = system: leukemia cells HL-60 and U937 cells; conditions: 24 h
# Experimental: The effect of E5 polypeptide on the apoptosis of leukemia cells HL-60 and U937 cells was examined by FITC-Annexin V/PI (eBioscience, Australia) double-staining assay. HL-60 and U937 cells were harvested in logarithmic growth phase. The cell suspensions and E5 aqueous solutions at different concentrations were added to 24-well plates. After incubation for 24 h, the cells were collected and washed with PBS. FITC-Annexin V and PI were added after the cells were resuspended in a binding buffer (10 mM Hepes/NaOH, pH 7.4, 140 mM NaCl, 2.5 mM CaCl2). After incubating for 10 min at room temperature, 1.5×10^4 cells were analyzed by flow cytometer (Accuri C6, BD, USA).
# HL-60 cells = conditions: CXCL12 200 ng/mL, 24 h
# Experimental: (§1) HL-60 and U937 cells were harvested in logarithmic growth phase and suspended in RPMI-1640 medium without FBS. 200 μL of the suspension containing 20×10^4 cells and aqueous solutions of E5 at different concentrations were added to the upper chamber of a trans well chamber (PET microporous filter membrane with a diameter of […] was used for HL-60, and PET microporous filter membrane with a diameter of 5 μm was used for U937) so that the final concentration of the polypeptide molecule was 0.1 μM, 1.0 μM, and 10 μM respectively, and an aqueous solution was added for use as a blank control. 800 μL of the RPMI-1640 medium without FBS was added to the lower chamber, along with adding aqueous solutions of CXCL12 at concentrations of 200 ng/mL and 50 ng/mL respectively to induce HL-60 and U937 cells. The culture plates were incubated in an incubator under 37° C., 5% CO2 for 24 h. The trans well chambers were removed and the number of the migrated cells in the lower chamber was calculated.
# U937 cells = conditions: CXCL12 50 ng/mL, 24 h
# Experimental: as §1
substance,measurement,setting,value
Biotin-GGRSFFLLRRIQGCRFRNTVDD [E5],survival time of mice versus cyclophosphamide group and control group,[1],longer survival time
same,weight of mice versus cyclophosphamide group and control group,[1],much higher
same,apoptosis rate of leukemia cells,[2]; 50 μM,10%
same,apoptosis rate of leukemia cells,[2]; 80 μM,22%
same,effect on apoptosis of leukemia cells HL-60 and U937 cells,[2]; concentration below 20 μM,negligible
same,apoptosis rate of leukemia cells,[2]; concentration higher than 20 μM,increased rapidly
same,decrease of migration ability of HL-60 cells (longitudinal),HL-60 cells; 0.1 μM,35.00%
same,decrease of migration ability of HL-60 cells (longitudinal),HL-60 cells; 1.0 μM,39.00%
same,decrease of migration ability of HL-60 cells (longitudinal),HL-60 cells; 10 μM,64.00%
same,decrease of migration ability of U937 cells (longitudinal),U937 cells; 0.1 μM,17.00%
same,decrease of migration ability of U937 cells (longitudinal),U937 cells; 1.0 μM,23.00%
same,decrease of migration ability of U937 cells (longitudinal),U937 cells; 10 μM,20.00%
